# Like-named read-outs stand apart in the source and are kept apart here. Non-standard residues stand in square brackets, D forms with d. Residues, ends and D or L forms follow the SMILES beside them.
# Columns and labels:
# [1] = test system: C. neoformans H99 (serotype A); assay: microbe, parasite or virus in culture; details: Cryptococcus neoformans
# [2] = test system: C. neoformans 1841 (serotype D); assay: microbe, parasite or virus in culture; details: Cryptococcus neoformans
# [3] = test system: C. neoformans KN99α; assay: Antifungal activity assay (CFU on SAB agar); type: cell-based, Cryptococcus neoformans; details: treatment 3 h, 30 °C, mean ± SD, n = 4; for cell count C. neoformans KN99α, 24 h: CFU counted after 24 h; for cell count C. neoformans KN99α, 48 h: CFU counted after 48 h
# [4] = test system: C. neoformans KN99α (serotype A, mating type MATα); assay: microbe, parasite or virus in culture; details: Cryptococcus neoformans
# [5] = test system: C. neoformans strains 1841, H99, and KN99α; assay: Broth microdilution assay (MIC); type: cell-based, Cryptococcus neoformans
# [6] = test system: C. neoformans 1841; assay: Antifungal activity assay (CFU on SAB agar); type: cell-based, Cryptococcus neoformans; details: treatment 3 h, 30 °C, mean ± SD, n = 4; for cell count C. neoformans 1841, 24 h: CFU counted after 24 h; for cell count C. neoformans 1841, 48 h: CFU counted after 48 h
# [7] = test system: C. neoformans H99; assay: Antifungal activity assay (CFU on SAB agar); type: cell-based, Cryptococcus neoformans; details: treatment 3 h, 30 °C, mean ± SD, n = 4; for cell count C. neoformans H99, 24 h: CFU counted after 24 h; for cell count C. neoformans H99, 48 h: CFU counted after 48 h
# [8] = test system: C. neoformans KN99α (serotype A, mating type MATα)
# [9] = test system: C. neoformans H99 (serotype A)
# [10] = test system: C. neoformans 1841 (serotype D)
# [11] = 24 h, read-out: MIC (mg/L) H99 24 h
# [12] = 24 h, read-out: MIC (μmol/L) H99 24 h
# [13] = 48 h, read-out: MIC (mg/L) H99 48 h
# [14] = 48 h, read-out: MIC (μmol/L) H99 48 h
# [15] = 24 h, pH 7.5, read-out: MIC (μmol/L) 1841 24 h
# [16] = 24 h, read-out: MIC (mg/L) 1841 24 h
# [17] = 48 h, pH 7.5, read-out: MIC (μmol/L) 1841 48 h
# [18] = 48 h, read-out: MIC (mg/L) 1841 48 h
# [19] = 24 h, read-out: MIC (mg/L) KN99α 24 h
# [20] = 24 h, read-out: MIC (μmol/L) KN99α 24 h
# [21] = 48 h, read-out: MIC (mg/L) KN99α 48 h
# [22] = 48 h, read-out: MIC (μmol/L) KN99α 48 h
# [23] = Cryptococcus neoformans, read-out: MIC
# [24] = KN99α (serotype A, mating type MATα, 24 h)
# [25] = KN99α (serotype A, mating type MATα, 48 h)
# [26] = broth microdilution, 50% SAB in phosphate buffer, 30°C, read after 24 h, n = 6
# [27] = broth microdilution, 50% SAB in phosphate buffer, 30°C, read after 48 h, n = 6
# [28] = broth microdilution, 50% SAB in phosphate buffer pH 7.5, 5 × 10^4 CFU/mL, 30°C, read after 24 h, mean of six replicates (n = 6)
# [29] = broth microdilution, 50% SAB in phosphate buffer pH 7.5, 5 × 10^4 CFU/mL, 30°C, read after 48 h, n = 6
compound,measurement,setting,value
"OC(Cn1cncn1)(Cn1cncn1)c1ccc(F)cc1F [Fluconazole, fluconazole, reference compound]",MIC,[1]; [11],16 mg/L
same,MIC,[1]; [12],53 µmol/L
same,MIC,[1]; [13],16 to 32 mg/L
same,MIC,[1]; [14],53 to 105 µmol/L
same,MIC,[2]; [15],105 µmol/L
same,MIC,[2]; [16],32 mg/L
same,MIC,[2]; [17],105 µmol/L
same,MIC,[2]; [18],32 mg/L
same,"cell count C. neoformans KN99α, 24 h",[3]; 0.25 µmol/L,2.9 ± 0.5 x 10^4 CFU/mL
same,"cell count C. neoformans KN99α, 48 h",[3]; 0.25 µmol/L,3.0 ± 0.6 x 10^4 CFU/mL
same,"cell count C. neoformans KN99α, 24 h",[3]; 2.5 µmol/L,3.3 ± 0.6 x 10^4 CFU/mL
same,"cell count C. neoformans KN99α, 48 h",[3]; 2.5 µmol/L,3.4 ± 0.7 x 10^4 CFU/mL
same,"cell count C. neoformans KN99α, 24 h",[3]; 25 µmol/L,3.2 ± 0.5 x 10^4 CFU/mL
same,"cell count C. neoformans KN99α, 48 h",[3]; 25 µmol/L,3.3 ± 0.5 x 10^4 CFU/mL
same,MIC,[4]; [19],4 mg/L
same,MIC,[4]; [20],13 µmol/L
same,MIC,[4]; [21],8 mg/L
same,MIC,[4]; [22],26 µmol/L
same,MIC,[5],4 to 32 mg/L
same,MIC,[5]; [23],13 to 105 µmol/L
same,"cell count C. neoformans 1841, 24 h",[6]; 0.25 µmol/L,2.5 ± 0.0 x 10^4 CFU/mL
same,"cell count C. neoformans 1841, 48 h",[6]; 0.25 µmol/L,2.5 ± 0.0 x 10^4 CFU/mL
same,"cell count C. neoformans 1841, 24 h",[6]; 2.5 µmol/L,2.7 ± 0.2 x 10^4 CFU/mL
same,"cell count C. neoformans 1841, 48 h",[6]; 2.5 µmol/L,2.7 ± 0.2 x 10^4 CFU/mL
same,"cell count C. neoformans 1841, 24 h",[6]; 25 µmol/L,1.9 ± 0.3 x 10^4 CFU/mL
same,"cell count C. neoformans 1841, 48 h",[6]; 25 µmol/L,1.9 ± 0.3 x 10^4 CFU/mL
same,"cell count C. neoformans H99, 24 h",[7]; 0.25 µmol/L,3.4 ± 0.5 x 10^4 CFU/mL
same,"cell count C. neoformans H99, 48 h",[7]; 0.25 µmol/L,3.8 ± 0.3 x 10^4 CFU/mL
same,"cell count C. neoformans H99, 24 h",[7]; 2.5 µmol/L,3.4 ± 0.4 x 10^4 CFU/mL
same,"cell count C. neoformans H99, 48 h",[7]; 2.5 µmol/L,3.5 ± 0.4 x 10^4 CFU/mL
same,"cell count C. neoformans H99, 24 h",[7]; 25 µmol/L,3.3 ± 0.8 x 10^4 CFU/mL
same,"cell count C. neoformans H99, 48 h",[7]; 25 µmol/L,3.5 ± 0.8 x 10^4 CFU/mL
"Nc1[nH]c(=O)ncc1F [Flucytosine, flucytosine, reference compound]",MIC,[1]; [11],64 mg/L
same,MIC,[1]; [12],496 µmol/L
same,MIC,[1]; [13],> 128 mg/L
same,MIC,[1]; [14],> 992 µmol/L
same,MIC,[2]; [15],496 µmol/L
same,MIC,[2]; [16],64 mg/L
same,MIC,[2]; [17],992 µmol/L
same,MIC,[2]; [18],128 mg/L
same,"cell count C. neoformans KN99α, 24 h",[3]; 0.25 µmol/L,3.4 ± 0.7 x 10^4 CFU/mL
same,"cell count C. neoformans KN99α, 48 h",[3]; 0.25 µmol/L,3.4 ± 0.8 x 10^4 CFU/mL
same,"cell count C. neoformans KN99α, 24 h",[3]; 2.5 µmol/L,3.1 ± 0.5 x 10^4 CFU/mL
same,"cell count C. neoformans KN99α, 48 h",[3]; 2.5 µmol/L,3.2 ± 0.5 x 10^4 CFU/mL
same,"cell count C. neoformans KN99α, 24 h",[3]; 25 µmol/L,3.3 ± 0.5 x 10^4 CFU/mL
same,"cell count C. neoformans KN99α, 48 h",[3]; 25 µmol/L,3.3 ± 0.5 x 10^4 CFU/mL
same,MIC,[4]; [19],128 mg/L
same,MIC,[4]; [20],992 µmol/L
same,MIC,[4]; [21],> 128 mg/L
same,MIC,[4]; [22],> 992 µmol/L
same,MIC,[5],≥ 64 mg/L
same,MIC,[5]; [23],≥ 496 µmol/L
same,"cell count C. neoformans 1841, 24 h",[6]; 0.25 µmol/L,2.2 ± 0.1 x 10^4 CFU/mL
same,"cell count C. neoformans 1841, 48 h",[6]; 0.25 µmol/L,2.2 ± 0.1 x 10^4 CFU/mL
same,"cell count C. neoformans 1841, 24 h",[6]; 2.5 µmol/L,2.4 ± 0.2 x 10^4 CFU/mL
same,"cell count C. neoformans 1841, 48 h",[6]; 2.5 µmol/L,2.4 ± 0.2 x 10^4 CFU/mL
same,"cell count C. neoformans 1841, 24 h",[6]; 25 µmol/L,2.4 ± 0.0 x 10^4 CFU/mL
same,"cell count C. neoformans 1841, 48 h",[6]; 25 µmol/L,2.4 ± 0.0 x 10^4 CFU/mL
same,"cell count C. neoformans H99, 24 h",[7]; 0.25 µmol/L,3.1 ± 0.8 x 10^4 CFU/mL
same,"cell count C. neoformans H99, 48 h",[7]; 0.25 µmol/L,3.2 ± 0.7 x 10^4 CFU/mL
same,"cell count C. neoformans H99, 24 h",[7]; 2.5 µmol/L,3.7 ± 0.4 x 10^4 CFU/mL
same,"cell count C. neoformans H99, 48 h",[7]; 2.5 µmol/L,3.9 ± 0.3 x 10^4 CFU/mL
same,"cell count C. neoformans H99, 24 h",[7]; 25 µmol/L,3.1 ± 0.5 x 10^4 CFU/mL
same,"cell count C. neoformans H99, 48 h",[7]; 25 µmol/L,3.3 ± 0.6 x 10^4 CFU/mL
CC[C@H](C)[C@H](NC(=O)[C@@H](CCCNC(=N)N)NC(=O)[C@H](CCCNC(=N)N)NC(=O)[C@@H]1CCCN1C(=O)[C@@H]1CCCN1C(=O)[C@H](CCCNC(=N)N)NC(=O)[C@@H]1CCCN1C(=O)[C@H](CCCNC(=N)N)NC(=O)[C@@H]1CCCN1C(=O)[C@H](CC(C)C)NC(=O)[C@H](Cc1ccc(O)cc1)NC(=O)[C@@H]1CCCN1C(=O)[C@@H]1CCCN1C(=O)[C@H](CCCCN)NC(=O)[C@H](CC(=O)O)NC(=O)[C@@H](N)C(C)C)C(=O)N[C@@H](Cc1ccc(O)cc1)C(=O)N[C@@H](CC(N)=O)C(=O)N[C@H](CCCNC(=N)N)C(N)=O [Onc112] (H-VDKPPYLPRPRPPR[dR]IYN[dR]-NH2),MIC,"[5]; strains 1841, H99, and KN99α, 24 h",1.6 to 6.7 µmol/L
same,MIC (mg/L) KN99α 24 h,[8]; [24],8 to 16 mg/L
same,MIC (μmol/L) KN99α 24 h,[8]; [24],3.3 to 6.7 µmol/L
same,MIC (mg/L) KN99α 48 h,[8]; [25],16 to 32 mg/L
same,MIC (μmol/L) KN99α 48 h,[8]; [25],6.7 to 13 µmol/L
same,MIC (mg/L) H99 24 h,"[9]; H99 (serotype A, 24 h)",8 to 16 mg/L
same,MIC (μmol/L) H99 24 h,"[9]; H99 (serotype A, 24 h)",3.3 to 6.7 µmol/L
same,MIC (μmol/L) H99 48 h,"[9]; H99 (serotype A, 48 h)",6.7 µmol/L
same,MIC (μmol/L) 1841 24 h,"[10]; 1841 (serotype D, 24 h, pH 7.5)",3.3 µmol/L
same,MIC (μmol/L) 1841 48 h,"[10]; 1841 (serotype D, 48 h, pH 7.5)",6.7 µmol/L
"CC[C@H](C)[C@H](NC(=O)[C@@H]1CCCN1C(=O)[C@H](CCCNC(=N)N)NC(=O)[C@@H]1CCCN1C(=O)[C@@H]1CCCN1C(=O)[C@@H](NC(=O)[C@@H]1CCCN1C(=O)[C@H](CCCNC(=N)N)NC(=O)[C@@H]1CCCN1C(=O)[C@H](CC(C)C)NC(=O)[C@H](Cc1ccc(O)cc1)NC(=O)[C@H](CO)NC(=O)CNC(=O)[C@H](CCCCN)NC(=O)[C@H](CC(=O)O)NC(=O)[C@@H](N)C(C)C)[C@@H](C)O)C(=O)N[C@@H](Cc1ccc(O)cc1)C(=O)N[C@@H](CC(N)=O)C(=O)N[C@@H](CCCNC(=N)N)C(=O)N[C@@H](CC(N)=O)C(=O)O [Pyrrhocoricin, reference compound] (H-VDKGSYLPRPTPPRPIYNRN-OH)",MIC,[5],> 55 µmol/L
same,MIC (μmol/L) KN99α 24 h,[8]; [26],>55 µmol/L
same,MIC (μmol/L) KN99α 48 h,[8]; [27],>55 µmol/L
same,MIC (μmol/L) H99 24 h,[9]; [26],>55 µmol/L
same,MIC (μmol/L) H99 48 h,[9]; [27],>55 µmol/L
same,MIC (μmol/L) 1841 24 h,[10]; [28],>55 µmol/L
same,MIC (μmol/L) 1841 48 h,[10]; [29],>55 µmol/L
"RRIRPRPPRLPRPRPRPLPFPRPGPRPIPRPLPFPRPGPRPIPRPLPFPRPGPRPIPRP-OH [Bac7 1–60, reference compound]",MIC,[5],1.1 µmol/L
same,MIC (μmol/L) KN99α 24 h,[8]; [26],1.1 µmol/L
same,MIC (mg/L) KN99α 48 h,[8]; [27],8 to 16 mg/L
same,MIC (μmol/L) KN99α 48 h,[8]; [27],1.1 to 2.2 µmol/L
same,MIC (μmol/L) H99 24 h,[9]; [26],1.1 µmol/L
same,MIC (μmol/L) H99 48 h,[9]; [27],1.1 µmol/L
same,MIC (μmol/L) 1841 24 h,[10]; [28],1.1 µmol/L
same,MIC (μmol/L) 1841 48 h,[10]; [29],1.1 µmol/L

# — paper PMC10800876, “Evaluation of proline-rich antimicrobial peptides as potential lead structures for novel antimycotics against Cryptococcus neoformans” (Frontiers in Microbiology, 2024)
